From patent publication US20040087572A1, “Method for inhibiting cataracts” (priority 2003, published 2004)

How the values were obtained:
[1] = tested on: chloride channels in the lens; conditions: organ culture, clinically relevant concentrations; cited from earlier work
[2] = tested on: postmenopausal women (cataracts); assay: Phase 3 placebo-controlled clinical trial: cataract treatment-emergent signs and symptoms (TESS) events; assay type: in vivo, human
Experimental: A phase 3, multicenter, double-blind, placebo-controlled, randomized clinical trial was conducted. The trial included 7705 women (mean age 67 years old), who were an average of 19 years postmenopausal. These patients were randomly assigned to the following treatment protocol: raloxifene hydrochloride at 60 mg per day via oral administration, raloxifene at 120 mg per day, or placebo. The study was conducted for a period of 48 months. As a portion of the patient's overall evaluation, various clinical tests and parameters were measured at periodic intervals.
The following tables provide summaries of select cataract treatment-emergent signs and symptoms (“TESS”) events for various patient populations at the thirty-six and the forty-eight month mark of the clinical trial.

endometrium / uterus = conditions: clinical studies in women; cited from earlier work
[3] = All Randomized Patients, 36-Month Data, Rlx60 (60 mg per day oral), N = 2557
[4] = All Randomized Patients, 36-Month Data, Rlx120 (120 mg per day), N = 2572
[5] = All Randomized Patients, 48-Month Data, Rlx60 (60 mg per day oral), N = 2557
[6] = All Randomized Patients, 48-Month Data, Rlx120 (120 mg per day), N = 2572
[7] = Patients Not Reporting a Cataract-Related Current Condition at Baseline, 36-Month Data, Rlx60 (60 mg per day oral), N = 2394
[8] = Patients Not Reporting a Cataract-Related Current Condition at Baseline, 36-Month Data, Rlx120 (120 mg per day), N = 2418
[9] = Patients Not Reporting a Cataract-Related Current Condition at Baseline, 48-Month Data, Rlx60 (60 mg per day oral), N = 2385
[10] = Patients Not Reporting a Cataract-Related Current Condition at Baseline, 48-Month Data, Rlx120 (120 mg per day), N = 2408
[11] = Patients Reporting a Cataract-Related Current Condition at Baseline, 36-Month Data, Rlx60 (60 mg per day oral), N = 163
[12] = Patients Reporting a Cataract-Related Current Condition at Baseline, 36-Month Data, Rlx120 (120 mg per day), N = 154
[13] = Patients Reporting a Cataract-Related Current Condition at Baseline, 48-Month Data, Rlx60 (60 mg per day oral), N = 172
[14] = Patients Reporting a Cataract-Related Current Condition at Baseline, 48-Month Data, Rlx120 (120 mg per day), N = 164

Which “Effect on chloride channels” value [1] does the source give for `CC/C(=C(\c1ccccc1)c1ccc(OCCN(C)C)cc1)c1ccccc1` [tamoxifen] here?
The value was “blocked chloride channels”.

What does the source list for `Cl.O=C(c1ccc(OCCN2CCCCC2)cc1)c1c(-c2ccc(O)cc2)sc2cc(O)ccc12` [Rlx, [2-(4-hydroxyphenyl)-6-hydroxybenzo[b]thie-3-yl][4-[2-(1-piperidenyl)ethoxy]phenyl]methanone hydrochloride]?
Dose dependence of the trend in cataract events ([2]; 120 mg per day vs 60 mg per day vs placebo): dose dependent; Risk of cataracts (adverse events relating to cataracts) as compared to placebo ([2]; 7705 postmenopausal women, 60 or 120 mg per day, 48 months): trend toward decreasing risk of cataracts; "Cataract Specified" event, number of patients [2, 3]: 92; "Cataract Specified" event, percent of patients [2, 3]: 3.6%; Any Cataract-related event, number of patients [2, 3]: 105; Any Cataract-related event, percent of patients [2, 3]: 4.1%; Surgery for cataract, number of patients [2, 3]: 60; Surgery for cataract, percent of patients [2, 3]: 2.3%; "Cataract Specified" event, number of patients [2, 4]: 82; "Cataract Specified" event, percent of patients [2, 4]: 3.2%; Any Cataract-related event, number of patients [2, 4]: 101; Any Cataract-related event, percent of patients [2, 4]: 3.9%; Surgery for cataract, number of patients [2, 4]: 60; Surgery for cataract, percent of patients [2, 4]: 2.3%; "Cataract Specified" event, number of patients [2, 5]: 135; "Cataract Specified" event, percent of patients [2, 5]: 5.3%; Any Cataract-related event, number of patients [2, 5]: 151; Any Cataract-related event, percent of patients [2, 5]: 5.9%; Surgery for cataract, number of patients [2, 5]: 85; Surgery for cataract, percent of patients [2, 5]: 3.3%; "Cataract Specified" event, number of patients [2, 6]: 122; "Cataract Specified" event, percent of patients [2, 6]: 4.7%; Any Cataract-related event, number of patients [2, 6]: 140; Any Cataract-related event, percent of patients [2, 6]: 5.4%; Surgery for cataract, number of patients [2, 6]: 78; Surgery for cataract, percent of patients [2, 6]: 3.0%; Any Cataract-related event, number of patients [2, 7]: 80; Any Cataract-related event, percent of patients [2, 7]: 3.3%; Any Cataract-related event, number of patients [2, 8]: 83; Any Cataract-related event, percent of patients [2, 8]: 3.4%; Any Cataract-related event, number of patients [2, 9]: 120; Any Cataract-related event, percent of patients [2, 9]: 5.0%; Any Cataract-related event, number of patients [2, 10]: 115; Any Cataract-related event, percent of patients [2, 10]: 4.8%; Any Cataract-related event, number of patients [2, 11]: 25; Any Cataract-related event, percent of patients [2, 11]: 15.3%; Any Cataract-related event, number of patients [2, 12]: 18; Any Cataract-related event, percent of patients [2, 12]: 11.7%; Any Cataract-related event, number of patients [2, 13]: 31; Any Cataract-related event, percent of patients [2, 13]: 18.0%; Any Cataract-related event, number of patients [2, 14]: 25; Any Cataract-related event, percent of patients [2, 14]: 15.2%; Endometrial cancer (endometrium / uterus): has not been associated with endometrial cancer; Endometrial stimulation (endometrium / uterus): not associated with endometrial stimulation
